Assay results as given in EPA's ToxRefDB 2.

Legend:
rat [1] = details: Prenatal developmental toxicity study; wistar; Oral; Gavage/Intubation; dose end: 5 GD; group: maternal; reproductive / reproductive performance / implantations / implantations
rat [2] = details: Developmental neurotoxicity range-finding study; sprague dawley; Oral; Feed; dose end: 21 PND; group: cannot be grouped; systemic / in life observation / body weight / body weight + systemic / in life observation / body weight / body weight gain + systemic / in…
rat [3] = details: Subchronic oral toxicity in rodents, Feed, dose end: 90 day, group: systemic
dog [4] = details: Chronic toxicity, beagle, Oral, Feed, dose end: 52 week, group: systemic
dog [5] = details: Subchronic oral toxicity in nonrodent, beagle, Feed, dose end: 90 day, group: systemic, systemic / in life observation / clinical signs / defecation (diarrhea) + systemic / in life observation / clinical signs / emesis + …
mouse = details: Carcinogenicity; cd1; Oral; Feed; dose end: 104 week; group: systemic; systemic / in life observation / clinical signs / hyperactivity
rat [6] = details: Developmental neurotoxicity study; sprague dawley; Inhalation; Whole-Body; dose end: 365 PND; group: cannot be grouped; systemic / in life observation / body weight / body weight gain + systemic / in life observation / body weight / offspring (pup) weight
rabbit = details: Prenatal developmental toxicity study, new zealand white, Oral, Gavage/Intubation, dose end: 19 GD, group: maternal
rat [7] = details: Multigenerational reproductive toxicity study, sprague dawley, Oral, Feed, dose end: 2 generation
rat [8] = details: Combined chronic toxicity/carcinogenicity; sprague dawley; Oral; Feed; dose end: 104 week; group: systemic; systemic / in life observation / body weight / body weight gain + systemic / pathology microscopic / kidney / concretion + systemic / …
dog [9] = details: Chronic toxicity, beagle, Oral, Feed, dose end: 106 week, group: systemic
[10] = systemic / clinical chemistry / urea nitrogen / urea + systemic / clinical chemistry / alkaline phosphatase (alp/alk) / alkaline phosphatase…
[11] = systemic / in life observation / clinical signs / tremors + systemic / clinical chemistry / glucose / glucose + systemic / in life …
[12] = reproductive / reproductive performance / resorptions / resorptions + systemic / in life observation / food consumption / food consumption
[13] = group: offspring, systemic / in life observation / body weight / offspring (pup) weight
[14] = group: parental, systemic / in life observation / body weight / body weight + systemic / in life observation / body weight / body weight gain + systemic / in…
[15] = systemic / pathology microscopic / bone marrow / atrophy + systemic / pathology microscopic / kidney / congestion + systemic / pathology …

Cc1ccc(-c2cc(C(F)(F)F)nn2-c2ccc(S(N)(=O)=O)cc2)cc1 [Celecoxib]
LEL (rat [1]): 80 mg/kg/day | LOAEL (rat [1]): > 160 mg/kg/day | NEL (rat [1]): 40 mg/kg/day | NOAEL (rat [1]): ≥ 160 mg/kg/day

CC1(C)C(C(=O)OC(C#N)c2cccc(Oc3ccccc3)c2)C1(C)C (stereo not drawn) [Fenpropathrin]
LEL (rat [2]): 27 mg/kg/day | LOAEL (rat [2]): 27 mg/kg/day | NEL (rat [2]): 13 mg/kg/day | NOAEL (rat [2]): 13 mg/kg/day | LOAEL (rat [3]; systemic / clinical chemistry / alkaline phosphatase (alp/alk) / alkaline phosphatase (alp/alk) + systemic / hematology / blood clotting / …): 30 mg/kg/day | LEL (rat [3]; systemic / clinical chemistry / urea nitrogen / urea): 5 mg/kg/day | NEL (rat [3]; [10]): 1.5 mg/kg/day | NOAEL (rat [3]; [10]): 15 mg/kg/day | LOAEL (dog [4]; systemic / in life observation / clinical signs / tremors): 6.25 mg/kg/day | LEL (dog [4]; systemic / in life observation / clinical signs / tremors + systemic / clinical chemistry / glucose / glucose): 6.25 mg/kg/day | NEL (dog [4]; [11]): 2.5 mg/kg/day | NOAEL (dog [4]; [11]): 2.5 mg/kg/day | LEL (dog [5]): 6.25 mg/kg/day | LOAEL (dog [5]): 6.25 mg/kg/day | NEL (dog [5]): < 6.25 mg/kg/day | NOAEL (dog [5]): < 6.25 mg/kg/day | LEL (mouse): 65.2 mg/kg/day | LOAEL (mouse): > 65.2 mg/kg/day | NEL (mouse): 16.2 mg/kg/day | NOAEL (mouse): ≥ 65.2 mg/kg/day

FC(F)(F)C(Cl)Br (stereo not drawn) [Halothane]
LEL (rat [6]): 12.5 ppm | LOAEL (rat [6]): > 12.5 ppm | NEL (rat [6]): < 12.5 ppm | NOAEL (rat [6]): ≥ 12.5 ppm

CSc1nc(NC(C)C)nc(NC(C)C)n1 [Prometryn]
LOAEL (rabbit; [12]): 72 mg/kg/day | NEL (rabbit; [12]): 12 mg/kg/day | NOAEL (rabbit; [12]): 12 mg/kg/day | LEL (rabbit; reproductive / reproductive performance / resorptions / resorptions + systemic / in life observation / food consumption / food consumption…): 72 mg/kg/day | LEL (rat [7]; [13]): 47.8 mg/kg/day | LOAEL (rat [7]; [13]): 47.8 mg/kg/day | NEL (rat [7]; [13]): 0.6 mg/kg/day | NOAEL (rat [7]; [13]): 0.6 mg/kg/day | LEL (rat [7]; [14]): 47.8 mg/kg/day | LOAEL (rat [7]; [14]): 47.8 mg/kg/day | NEL (rat [7]; [14]): 0.6 mg/kg/day | NOAEL (rat [7]; [14]): 0.6 mg/kg/day | LEL (rat [8]): 60.9 mg/kg/day | LOAEL (rat [8]): 60.9 mg/kg/day | NEL (rat [8]): 29.4 mg/kg/day | NOAEL (rat [8]): 29.4 mg/kg/day | LOAEL (dog [9]; [15]): 37.5 mg/kg/day | NEL (dog [9]; [15]): 0.375 mg/kg/day | NOAEL (dog [9]; [15]): 3.75 mg/kg/day | LEL (dog [9]; systemic / pathology microscopic / liver / cellular alteration + systemic / pathology microscopic / liver / depletion glycogen + systemic / …): 3.75 mg/kg/day
